Data as given in patent US20190117535A1, “ORAL RINSE” (Church & Dwight Co., Inc., priority 2017, published 2019).

How the values were obtained:
[1] = Visual observation of precipitate formation / clarity while making the oral rinse composition; type: physicochemical
Procedure: A pilot trial was conducted to determine how sorbitol was affecting precipitate. A deionized water/sorbitol solution was made up and added to an empty chamber. […] A second trial was done with sorbitol as a rinse first, and then water was added.

[2] = Mixing time until clear solution / until TSPP is dissolved
Procedure: With US sourced raw materials, deionized water and sorbitol were combined. TSPP was added and fully dissolved. Zinc chloride was then added.
With US sourced raw materials, deionized water and sorbitol were combined. TSPP and zinc chloride were then simultaneously added and fully dissolved.
With Montreal sourced raw materials, deionized water and sorbitol were combined. Zinc chloride, TSPP, DSPP, and saccharin were then simultaneously added and mixed.
Charged deionized water, sorbitol, and saccharin were mixed until dissolved. A 50% zinc chloride solution was added and mixed. […] TSPP was added and mixed. […] Charged DSPP was added. […] The mix time to get the TSPP into solution was 28 minutes.
A 50% zinc chloride solution was prepared. Water and sorbitol were added to the main mix tank followed by saccharin. Saccharin was allowed to fully dissolve before adding the zinc chloride premix. […] TSPP was then added and it took 70 minutes to fully dissolve.
Mix times for TSPP to go into solution were 30 minutes (25 KG) & 23 minutes (150 KG).

| SMILES | precipitate on rinsing the container ([1]; deionized water/sorbitol solution added to empty chamber) | precipitate on rinsing the container ([1]; sorbitol as a rinse first, then water added) | mix time to get the TSPP into solution ([2]; full pilot batch (150 KG), 50% zinc chloride solution) | time for TSPP to fully dissolve ([2]; full scale batch (800 KG), TSPP added after 50% zinc chloride premix) | dissolution time of TSPP ([2]; full scale batch (8000 KG), 62% zinc chloride solution, TSPP powder sifted through a screen) | mix time for TSPP to go into solution ([2]; pilot trial 25 KG, 62% zinc chloride solution) | mix time for TSPP to go into solution ([2]; pilot trial 150 KG, 62% zinc chloride solution) | mixing time until solution clear after TSPP addition ([2]; pilot trial, TSPP added after 50% zinc chloride solution) |
| --- | --- | --- | --- | --- | --- | --- | --- | --- |
| OC[C@@H](O)[C@@H](O)[C@H](O)[C@@H](O)CO [sorbitol] | No precipitate formed, but solution was slightly cloudy | No precipitate formed | – | – | – | – | – | – |
| O=P([O-])([O-])OP(=O)([O-])[O-].[Na+].[Na+].[Na+].[Na+] [TSPP, tetrasodium pyrophosphate] | – | – | 28 min | 70 min | about 30 minutes | 30 min | 23 min | 50 min |
